{
  "source": "patent US20230201385A1",
  "about": "“[…] OF BACTERIA AND VIRUSES” (MULTI-MAGNETICS INCORPORATED, priority 2020, published 2023)",
  "origin": "cited, not measured here",
  "key": {"[1]": {"test_system": "Enterobacterales"}, "[2]": {"test_system": "Enterobacterales infections", "details": "murine models"}, "[3]": {"details": "dog, i.v."}},
  "data": [
    {"smiles": "OC[C@@H](O)[C@@H](O)[C@H](O)[C@@H]([18F])CO", "note": "[^18F-FDS, 2-Deoxy-2[^18F]fluoro-D-sorbitol]", "values": [
      {"measurement": "Accumulation in cells", "setting": "[1]", "result": "accumulate in Enterobacterales but not in healthy mammalian or cancer cells"},
      {"measurement": "Detection of infections by PET", "setting": "[2]", "result": "specifically detect Enterobacterales infections"}
    ]},
    {"smiles": "O=P([O-])([O-])O.O=P([O-])([O-])O.[89Zr+4]", "note": "[^89Zr-phosphate]", "values": [
      {"measurement": "Duration of acceptable bone visualization", "setting": "[3]", "result": 20, "unit": "days"},
      {"measurement": "Mean standard uptake value (SUV) in bone", "setting": "[3]; averaged over days 8-16", "result": "~10"},
      {"measurement": "Mean standard uptake value (SUV) in kidneys", "setting": "[3]; averaged over days 8-16", "result": "~3"},
      {"measurement": "Mean standard uptake value (SUV) in liver", "setting": "[3]; averaged over days 8-16", "result": "~3"},
      {"measurement": "Mean standard uptake value (SUV) in lungs", "setting": "[3]; averaged over days 8-16", "result": "~3"}
    ]}
  ]
}
